Test results published in PubChem BioAssay AID328 (DTP/NCI, 2004).
Several values for one entry are separate records, joined by “and”; a condition that tells them apart may be missing. Identical values can stand only once. Inconclusive results and toxic doses are left out. The calls were made as follows: active = survival T/C of 150% or more; inactive = T/C below 125% in these data.

System: BDF1 mice, P388 leukemia ip, median survival T/C
Test: NCI In Vivo Anticancer Drug Screen. Data for tumor model P388 Leukemia (intraperitoneal) in B6D2F1 (BDF1) mice
Conditions: endpoint: median survival time, higher = longer survival
Summary of the method: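 T/C = treated-group survival ÷ vehicle-control survival; tumour transplanted into mice before dosing.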

[1] = dose: 100.0 mg/kg/injection, schedule: Q01DX009 (ip), vehicle: Klucel (hydroxypropylcellulose) (HPC)
[2] = dose: 200.0 mg/kg/injection, schedule: Q01DX009 (ip), vehicle: Klucel (hydroxypropylcellulose) (HPC)
[3] = dose: 100.0 mg/kg/injection, schedule: Q04DX003 (ip), vehicle: Klucel (hydroxypropylcellulose) (HPC)
[4] = dose: 200.0 mg/kg/injection, schedule: Q04DX003 (ip), vehicle: Klucel (hydroxypropylcellulose) (HPC)

Measured: T/C

C[n+]1cccc2c3ccccc3c(-c3ccccc3)cc21
inactive: dose: 0.39 mg/kg/injection, schedule: Q01DX009 (ip), vehicle: water 101 % of control | dose: 0.78 mg/kg/injection, schedule: Q01DX009 (ip), vehicle: water 90 % of control and 106 % of control | dose: 1.56 mg/kg/injection, schedule: Q01DX009 (ip), vehicle: water 89 % of control and 94 % of control and 103 % of control | dose: 3.12 mg/kg/injection, schedule: Q01DX009 (ip), vehicle: water 87 % of control and 93 % of control and 116 % of control | dose: 6.25 mg/kg/injection, schedule: Q01DX009 (ip), vehicle: water 98 % of control and 104 % of control and 122 % of control | dose: 6.25 mg/kg/injection, schedule: Q04DX003 (ip), vehicle: water 90 % of control | dose: 12.5 mg/kg/injection, schedule: Q01DX009 (ip), vehicle: water 100 % of control and 111 % of control | dose: 12.5 mg/kg/injection, schedule: Q04DX003 (ip), vehicle: water 103 % of control | dose: 25.0 mg/kg/injection, schedule: Q04DX003 (ip), vehicle: water 112 % of control | dose: 50.0 mg/kg/injection, schedule: Q01DX009 (ip), vehicle: water 113 % of control

Cc1ccc(NC(=O)N(CCCCl)N=O)cc1
inactive: dose: 25.0 mg/kg/injection, schedule: Q01DX009 (ip), vehicle: Klucel (hydroxypropylcellulose) (HPC) 105 % of control | dose: 50.0 mg/kg/injection, schedule: Q01DX009 (ip), vehicle: Klucel (hydroxypropylcellulose) (HPC) 119 % of control | [1] 111 % of control | [2] 95 % of control

CC1OCC2OC(C)OC(C(COC(c3ccccc3)(c3ccccc3)c3ccccc3)OS(C)(=O)=O)C2O1 (configuration not stated)
inactive: dose: 100.0 mg/kg/injection, schedule: Q04DX003 (ip), vehicle: saline 100 % of control | dose: 200.0 mg/kg/injection, schedule: Q04DX003 (ip), vehicle: saline 104 % of control | dose: 400.0 mg/kg/injection, schedule: Q04DX003 (ip), vehicle: saline 108 % of control

CC(C)C(=O)[O][Sn]([CH3])([CH3])[CH3]
inactive: dose: 0.75 mg/kg/injection, schedule: Q01DX009 (ip), vehicle: saline 100 % of control | dose: 1.5 mg/kg/injection, schedule: Q01DX009 (ip), vehicle: saline 91 % of control

Nc1nc(=S)c2ncn(C3OC(COC(=O)c4ccc([N+](=O)[O-])cc4)C(OC(=O)c4ccc([N+](=O)[O-])cc4)C3OC(=O)c3ccc([N+](=O)[O-])cc3)c2[nH]1 (configuration not stated)
inactive: [1] 111 % of control | [3] 91 % of control | [2] 103 % of control | [4] 91 % of control

S=c1[nH]c2ccccc2s1
inactive: dose: 50.0 mg/kg/injection, schedule: Q04DX003 (ip), vehicle: Klucel (hydroxypropylcellulose) (HPC) 109 % of control | dose: 100.0 mg/kg/injection, schedule: Q01DX001 (ip), vehicle: Klucel (hydroxypropylcellulose) (HPC) 100 % of control | [3] 100 % of control | dose: 200.0 mg/kg/injection, schedule: Q01DX001 (ip), vehicle: Klucel (hydroxypropylcellulose) (HPC) 108 % of control | [4] 100 % of control and 123 % of control | dose: 400.0 mg/kg/injection, schedule: Q01DX001 (ip), vehicle: Klucel (hydroxypropylcellulose) (HPC) 100 % of control | dose: 400.0 mg/kg/injection, schedule: Q04DX003 (ip), vehicle: Klucel (hydroxypropylcellulose) (HPC) 96 % of control

FC(F)(F)c1ccc2c(c1)N(CCCN1CCN(CCOCCCl)CC1)c1ccccc1S2
inactive: dose: 12.5 mg/kg/injection, schedule: Q04DX003 (ip), vehicle: saline 107 % of control

O=[N+]([O-])c1cccc(OCCCOc2ccccc2)c1
inactive: dose: 100.0 mg/kg/injection, schedule: Q01DX009 (ip), vehicle: other 100 % of control | dose: 100.0 mg/kg/injection, schedule: Q04DX003 (ip), vehicle: other 110 % of control | dose: 200.0 mg/kg/injection, schedule: Q01DX009 (ip), vehicle: other 100 % of control | dose: 200.0 mg/kg/injection, schedule: Q04DX003 (ip), vehicle: other 110 % of control | dose: 400.0 mg/kg/injection, schedule: Q01DX009 (ip), vehicle: other 100 % of control | dose: 400.0 mg/kg/injection, schedule: Q04DX003 (ip), vehicle: other 100 % of control

NOCc1csc(N)n1
inactive: dose: 75.0 mg/kg/injection, schedule: Q04DX003 (ip), vehicle: saline 91 % of control | dose: 300.0 mg/kg/injection, schedule: Q04DX003 (ip), vehicle: saline 87 % of control

CCC1CC2CN(CCc3c([nH]c4ccccc34)C(C(=O)OC)(c3cc4c(cc3OC)N(C)C3C(O)(C(=O)OC)C(OC(C)=O)C5(CC)C=CCN6CCC43C65)C2)C1 (configuration not stated)
inactive: dose: 0.06 mg/kg/injection, schedule: Q01DX009 (ip), vehicle: water 90 % of control | dose: 0.12 mg/kg/injection, schedule: Q01DX009 (ip), vehicle: water 90 % of control and 100 % of control | dose: 0.25 mg/kg/injection, schedule: Q01DX009 (ip), vehicle: water 95 % of control and 100 % of control | dose: 0.5 mg/kg/injection, schedule: Q01DX009 (ip), vehicle: water 90 % of control and 100 % of control | dose: 1.0 mg/kg/injection, schedule: Q01DX009 (ip), vehicle: water 90 % of control and 95 % of control and 100 % of control | dose: 2.0 mg/kg/injection, schedule: Q01DX009 (ip), vehicle: water 90 % of control and 95 % of control | dose: 4.0 mg/kg/injection, schedule: Q01DX009 (ip), vehicle: water 100 % of control | dose: 8.0 mg/kg/injection, schedule: Q01DX009 (ip), vehicle: water 100 % of control and 90 % of control
